# Results published in patent US6603023B2 (priority 1996, dated 2003).
# “And” between values parts separate entries of the source, which are not always exact repeats. Equal entries are not always repeated. Where two headings read alike, the source gives them in different places. Marks after values point to notes of the source that are not given here.
# Key:
# [1] = system: CCRF-CEM human T-cell acute lymphoblastic leukemia cell line; test: XTT cytotoxicity (cell growth inhibition), CCRF-CEM
# Description: (§1) The DC-3F hamster lung fibroblast cell line and its actinomycin D-selected sublines (DC-3F/ADII and DC-3F/ADX) were obtained from the Memorial Sloan-Kettering Cancer Center (MSKCC).
# (§2) The drug-resistant cell lines were continuously cultured in the presence of the selecting agent, AD, DX, VBL or VM to maintain the drug resistant phenotypes. […] All cells were cultured in RPMI 1640-10% FBS at 37° C. 5% CO2 (see below).
# (§3) The cells were cultured at an initial density of 5×10^4 cells/mL. They were maintained in a 5% CO2-humidified atmosphere at 37° C. in RPMI-1640 medium (GIBCO-BRL, Gaithersburg, Md.) containing penicillin (100 U/mL), streptomycin ([…]) (GIBCO-BRL) and 10% heat inactivate fetal bovine serum. Culture for cell suspension (such as for CCRF-CEM, P388 and sublines), were performed by the XTT-microculture tetrazonium method (Scudiero, D. A. et al., Cancer Res. 1988, 48, 4827-4833) in duplicate in 96-well microtiter plates.
# (§4) 2′,3′-Bis(methoxy-4-nitro-5-sufophenyl)-5-[(phenylamino)carbonyl]2H-tetrazolium hyudroxide (XTT) was prepared at 1 mg/mL in prewarmed (37° C.) medium without serum. Phenazine methosulfate (PMS) and fresh XTT were mixed together to obtain 0.025 mM PMS-XTT solution (25 μL of the stock 5 mM PMS was added per 5 mL of 1 mg/mL XTT). Following a 72 h incubation, 50 μL of the assay aliquots were added to each well of the cell culture. After incubation at 37° C. for 4 h, absorbance at 450 nm and 630 nm was measured with a microplate reader (EL340, Bio-Tek Instruments, Inc., Winooski, Vt.).
# [2] = system: CCRF-CEM/Taxol®; test: cells; format: cell-based, human
# Description: as §2, §3, §4
# [3] = system: CCRF-CEM/VBL100; test: cells; format: cell-based, human
# Description: as §2, §3, §4
# [4] = system: CCRF-CEM/VM1; test: cells; format: cell-based, human
# Description: as §2, §3, §4
# [5] = system: DC-3F hamster lung fibroblast cell line; test: SRB cytotoxicity, DC-3F; format: cell-based; conditions: Table 3
# Description: as §1, §2
# (§5) The cytotoxicity of the drug toward the monolayer cell cultures (such as DC-3F, MCF-7, SK-N-As and sublines) was determined in 96-well microtiter plates by the SRB method as described by Skehan and co-workers (Skehan, P., et al., J. Natl. Cancer Inst. 1990, 82, 1107-1112) for measuring the cellular protein content. Cultures were fixed with trichloroacetic acid and then stained for 30 min with 0.4% suforhodamine B dissolved in 1% acetic acid. Unbound dye was removed by acetic acid washes, and the protein-bound dye was extracted with an unbuffered Tris base (tris(hydroxy-methyl)aminomethane) for determination of absorbance at 570 nm in a 96-well microtiter plate reader. The experiments were carried out in duplicate. Each run entailed six to seven concentrations of the tested drugs. Data were analyzed with the median-effect plot (Chou, T.-C. & Talalay, P. T. (1984) Adv. Enzyme Regul. 22, 27-55) using a previously described computer program (Chou, J., & Chou T.-C. 1987, Dose-effect analysis with microcomputers: Quantitation of ED50, synergism, antagonism, low-dose risk, reception-ligand binding and enzyme kinetics, IBM-PC software and manual, Biosoft, Cambridge, U.K.).
# [6] = system: DC-3F/ADII; test: SRB cytotoxicity, DC-3F/ADII; format: cell-based, hamster
# Description: as §1, §2, §5
# (§6) Concerning Table 3, experiments were carried out using the cell lines DC-3F (parent hamster lung cells), DC-3F/ADII (moderate multidrug-resistant (MDR) cells) and DC-3F/ADX (very strong MDR cells).
# [7] = system: DC-3F/ADX; test: cells; format: cell-based, hamster; conditions: Table 3
# Description: as §1, §2, §5, §6
# [8] = system: MDR human mammary adenocarcinoma MCF-7/Adr xenograft; test: in vivo; conditions: MCF-7/Adr; i.v. infusion (order wraps over rows r16-r17)
# Description: DMSO was used as a vehicle for epothilones. Each mouse received ≦40 μL DMSO in all experiments.
# Athymic nude mice (nu/nu) were used for MX-1 and MCF-7/Adr human mammary carcinoma xenografts. Mice were obtained from Taconic Laboratory Animals and Service (Germantown, N.Y.: outbred, Swiss background).
# [9] = system: PC-3 Human Prostate Carcinoma; test: PC-3 xenograft; format: in vivo, nude mice
# [10] = system: A549 Human Lung Carcinoma; test: A549 xenograft; format: in vivo, nude mice
# [11] = Homo sapiens, CCRF-CEM, 72 h, Table 1A, XTT
# [12] = Homo sapiens, CCRF-CEM, Table 5, single determinations
# [13] = Homo sapiens, CCRF-CEM, read-out: IC50 (mean ± of determinations, in parentheses), Table 5
# [14] = Table 5, single determinations, listed as VP-16
# [15] = dEpoB 30 mg/kg 18 hr i.v. infusion, Taxol 16 mg/kg 6 hr infusion, VBL 2 and VP-16 25 mg/kg i.v. inj
# [16] = Q2D x 3: dEpoB 30 mg/kg 18 hr i.v. infusion, Taxol 15 mg/kg 6 hr infusion, VBL 2 and VP-16 25 mg/kg i.v. inj
# [17] = Table 6, single determinations, read-out: IC50
# [18] = Table 7, CEM/VBL, read-out: IC50
smiles,measurement,setting,value
"COc1cc([C@@H]2c3cc4c(cc3[C@@H](O[C@@H]3O[C@@H]5CO[C@@H](C)O[C@H]5[C@H](O)[C@H]3O)[C@H]3COC(=O)[C@H]23)OCO4)cc(OC)c1O [Etoposide, etoposide]",IC50,"[1]; Homo sapiens, CCRF-CEM",0.29 µM
same,IC50,[1]; [11],0.29 µM
same,IC50,"[1]; Homo sapiens, CCRF-CEM, Table 2",0.221 µM
same,IC50,[1]; [12],0.259 µM
same,IC50,[1]; [13],0.293 µM
same,IC50,[1]; [14],0.323 µM and 0.296 µM
same,IC50,"[2]; Homo sapiens, CCRF-CEM, 72 h",1.32 µM
same,(C)/(A) IC50 ratio,"[2]; Table 1A, CCRF-CEM/Taxol vs CCRF-CEM",4.5
same,Potency in parentheses relative to Epo B in CCRF-CEM cells,[3]; CCRF-CEM/VBL MDR cells,1/29514
same,Potency in square brackets relative to Epo B in CCRF-CEM/VBL MDR cells,[3]; CCRF-CEM/VBL MDR cells,1/4919
same,IC50,"[3]; Homo sapiens, CCRF-CEM",10.3 µM
same,IC50,[3]; [11],10.3 µM
same,IC50,"[3]; Homo sapiens, CCRF-CEM, Table 2, CCRF-CEM/VLB",7.39 µM
same,IC50,[3]; [13],10.3 µM
same,(B)/(A) IC50 ratio,"[3]; Table 1A, CCRF-CEM/VBL100 vs CCRF-CEM",35
same,relative resistance (fold) vs parent cell line,[3]; Table 5,(35.3X)
same,fold resistance vs parent CCRF-CEM,[4]; CCRF-CEM/VM1 cells,117 fold
same,IC50,[4]; [11],34.4 µM
same,IC50,"[4]; Homo sapiens, CCRF-CEM, Table 2, CCR-CEM/VM-1",34.5 µM
same,IC50,[4]; [12],35.1 µM
same,IC50,[4]; [13],34.4 µM
same,(D)/(A) IC50 ratio,"[4]; Table 1A, CCRF-CEM/VM1 vs CCRF-CEM",117
same,relative resistance (fold) vs parent cell line,[4]; Table 5,(117.4X)
same,IC50,[4]; [14],42.2 µM and 25.9 µM
same,IC50,"[5]; Mesocricetus auratus, DC3F",0.0339 µM
same,IC50,"[6]; Mesocricetus auratus, DC3F",0.632 µM
same,IC50,[7]; DC3F/ADX,12.1 µM
same,Therapeutic effect Rank Order,[8],"dEpoB >> VP-16,"
same,Therapeutic effect Rank Order,"[9]; PC-3, i.v. infusion (order wraps over rows r24-r25)",dEpoB >> VP-16
same,"Average Body Weight (change), Day 9",[9]; [15],+0.3 g
same,"Average Body Weight (change), Day 11",[9]; [15],-0.1 g
same,"Average Body Weight (change), Day 13",[9]; [15],-2.4 g
same,"Average Tumor Size (TC), Day 9",[9]; [15],1.00 TC
same,"Average Tumor Size (TC), Day 11",[9]; [15],1.12 TC
same,"Average Tumor Size (TC), Day 13",[9]; [15],0.88 TC
same,Tumor Disappearance,[9]; [15],0/3
same,"Average Body Weight, Day 5","[9]; initial weight, dEpoB 30 mg/kg 18 hr i.v. infusion, Taxol 16 mg/kg 6 hr infusion, VBL 2 and VP-16 25 mg/kg i.v. inj",24.9 g
same,Therapeutic effect Rank Order,"[10]; A549, i.v. infusion","Taxol ®, dEpoB, VBL > VP-16"
same,"Average Body Weight (change), Day 11",[10]; [16],+0.1 g
same,"Average Body Weight (change), Day 13",[10]; [16],-0.2 g
same,"Average Body Weight (change), Day 15",[10]; [16],-2.2 g
same,Tumor Disappearance,[10]; [16],0/3
same,"Average Tumor Size, Day 11","[10]; Q2D x 3: dEpoB 30 mg/kg 18 hr i.v. infusion, Taxol 15 mg/kg 6 hr infusion, VBL 2 and VP-16 25 mg/kg i.v. inj, control 96",59 mm^3
same,"Average Tumor Size, Day 13","[10]; Q2D x 3: dEpoB 30 mg/kg 18 hr i.v. infusion, Taxol 15 mg/kg 6 hr infusion, VBL 2 and VP-16 25 mg/kg i.v. inj, control 128",150 mm^3
same,"Average Tumor Size, Day 15","[10]; Q2D x 3: dEpoB 30 mg/kg 18 hr i.v. infusion, Taxol 15 mg/kg 6 hr infusion, VBL 2 and VP-16 25 mg/kg i.v. inj, control 306",275 mm^3
same,"Average Tumor Size, Day 17","[10]; Q2D x 3: dEpoB 30 mg/kg 18 hr i.v. infusion, Taxol 15 mg/kg 6 hr infusion, VBL 2 and VP-16 25 mg/kg i.v. inj, control 553",536 mm^3
same,"Average Body Weight, Day 7","[10]; initial weight, Q2D x 3: dEpoB 30 mg/kg 18 hr i.v. infusion, Taxol 15 mg/kg 6 hr infusion, VBL 2 and VP-16 25 mg/kg i.v. inj",27.2 g
"C/C(=C\c1csc(C)n1)[C@@H]1C/C=C\CCCC[C@H](O)[C@@H](C)C(=O)C(C)(C)[C@@H](O)CC(=O)O1 [#14, Desmethyldesoxyepothilone A]",IC50,"[1]; Table 1, XTT",5 µM
same,IC50,"[1]; Table 6, single determinations",5.42 µM
same,IC50,"[1]; Table 7, CEM",5.42 µM
same,times less active than corresponding epothilone A counterpart (cytotoxicity),[1]; see Table 1,approximately 200 times
same,IC50,"[3]; Table 1, XTT, read-out: IC50",5.75 µM
same,IC50,[3]; [17],5.75 µM
same,IC50,[3]; [18],5.75 µM
same,IC50,"[4]; Table 1, XTT, read-out: IC50",6.29 µM
same,IC50,[4]; [17],6.29 µM
CC(=Cc1csc(C)n1)C1CC2OC2CC=CCCCCC(C)(C)CCC(=O)O1 (centres unmarked) [#3],IC50,[1]; Table 2,272 µM
same,IC50,"[1]; Table 6, single determinations",272 µM
same,IC50,"[1]; Table 7, CEM",272 µM
same,IC50,"[1]; read-out: IC50 (A), Table 2A, parent cell line",272 µM
same,IC50,"[3]; Table 2, CCRF-CEM/VLB, read-out: IC50",22.4 µM
same,"(B)/(A) ratio (fold resistance >1, collateral sensitivity <1)",[3]; Table 2A,(0.082)^b
same,IC50,"[3]; Table 2A, MDR cell line, read-out: IC50 (B)",22.4 µM
same,IC50,[3]; [17],22.4 µM
same,IC50,[3]; [18],22.4 µM
same,IC50,"[4]; Table 2, CCR-CEM/VM-1, read-out: IC50",11.6 µM
same,"(C)/(A) ratio (fold resistance >1, collateral sensitivity <1)",[4]; Table 2A,(0.043)^b
same,IC50,"[4]; Table 2A, Topo II gene mutated cell line, read-out: IC50 (C)",11.6 µM
same,IC50,[4]; [17],11.6 µM
same,IC50,[5]; read-out: IC50,9.52 µM
same,IC50,"[6]; Table 3, read-out: IC50",3 µM
same,IC50,[7]; read-out: IC50,0.972 µM
CC(=Cc1csc(C)n1)C(O)CC=CCCCC(C)C(O)C(C)C(=O)C(C)(C)C(O)CC(=O)O (centres unmarked) [#12],IC50,"[1]; Table 6, single determinations",0.794 µM
same,IC50,"[1]; Table 7, CEM",0.794 µM
same,IC50,[3]; [17],> 5 µM
same,IC50,[3]; [18],> 5 µM
same,IC50,[4]; [17],> 5 µM
